For test [1], the target named is T1, Recombinant human KIF18A (1-467His-tagged) protein (Homo sapiens, UniProt Q8NI77).
T1 construct: Recombinant human KIF18A (1-467His-tagged) protein; His; made in house
Nature of the test: KIF18A enzyme assay (microtubule-stimulated ATPase activity, ADP-Glo). In kind it is biochemical. The note with it: 30 nM KIF18A, 75 μM ATP, 30 μg/mL pig microtubules; read-out: Inhibitory activity against KIF18A IC50. The gist of the method:
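Buffer 15 mM Tris pH 7.5, 10 mM MgCl2, 0.01% Pluronic F-68, 1 μM paclitaxel, 30 μg/mL pig microtubules; reactions at room temperature. IC50 from inhibition relative to DMSO.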

Test [2] deals with Histone H3 Ser10 sites in HT29 cells. Briefly: Phosphorylation assay of histone H3 Ser10 sites in HT29 cells (immunofluorescence assay). In kind it is cell-based. The note with it: Homo sapiens, HT-29, 6 h after addition, FITC/DAPI ratio. On the procedure: Biological Example 5. Phosphorylation Assay of Histone H3 Ser10 Sites in HT29 Cells (Immunofluorescence Assay)
HT29 cells were seeded in a 96-well plate (Fisher 160376) at 8000 cells/well. The next day, the serially diluted compounds were added. 6 h after the addition of the compounds, the cells were washed once with 1×PBS, immobilized with 4% PFA for 15 min, further washed three times with 1×PBS, and permeabilized with 0.02% Triton-X100 for 10 min. A blocking buffer was then added for blocking for 15-30 min, and 1:3000-diluted primary antibodies (Phospho-Histone H3 (Ser10) (D7N8E) XP® Rabbit mAb #53348) were added. The plate was placed at 4° C. overnight. The next day, the cells were washed three times with 1×PBS, and 1:1000-diluted secondary antibodies (Fluorescein (FITC)-conjugated Affinipure Goat Anti-Rabbit IgG (H+L)) were added. The cells were incubated in the dark for 1-2 h and washed three times with 1×PBS. The nuclei were stained with DAPI, and after the staining was completed, photographs were taken using an MD ImageXpress Pico personal high-content imaging analysis system. The ratio of phosphorylation (FITC/DAPI) at H3 Ser10 sites in HT29 cells was quantified. To evaluate the effects of the compounds on the mitosis phase of HT29 cells, the EC50 values of the compounds were calculated.

Test [3] concerns HT-29 cells. Briefly: In vitro anti-proliferative activity against HT-29 cells (intracellular ATP content, 72 h). The format is cell-based. The note with it: Homo sapiens, 72 h after dosing. The procedure:
Biological Example 2. In Vitro Anti-Proliferative Activity of the Compounds of the Present Invention Against HT-29 Cells
HT-29 cells were seeded on a 384-well plate at 3000 cells/well. After overnight adherence culture, DMSO or the compounds serially 1:5-diluted from 5 μM were added. The viability of the cells was assessed 72 h after dosing by measuring the intracellular ATP content. The inhibition percentages of viable cells by the compounds were calculated by comparing with the DMSO group, and the IC50 values were also calculated.

Test [4] deals with HCT116 cells. Nature of the test: In vitro anti-proliferative activity against HCT116 cells (intracellular ATP content, 72 h). The format is cell-based. The note with it: for IC50: Homo sapiens, HCT-116, 72 h after dosing. The procedure:
Biological Example 3. In Vitro Anti-Proliferative Activity of the Compounds of the Present Invention Against HCT116 Cells
HCT116 cells were seeded on a 384-well plate at 3000 cells/well. After overnight adherence culture, DMSO or the compounds serially 1:5-diluted from 5 μM were added. The viability of the cells was assessed 72 h after dosing by measuring the intracellular ATP content. The inhibition percentages of viable cells by the compounds were calculated by comparing with the DMSO group, and the IC 50 values were also calculated.

In test [5] the test system is HT29 subcutaneous xenograft tumor. Nature of the test: In vivo pharmacodynamic study, mouse HT29 subcutaneous xenograft tumor model. The note with it: for Tumor volume on day 1 of treatment / Tumor volume on day 28 of treatment / TGI (tumor growth inhibition): 80 mg/kg intragastric once daily; for Tumor volume on day 1 of treatment: baseline day 1; for TGI (tumor growth inhibition): day 28 vs day 1. Also on record: species or system BALB/c nude mice. On the procedure: Biological Example 4. In Vivo Pharmacodynamic Study-Mouse HT29 Subcutaneous Xenograft Tumor Model
BALB/c nude mice were inoculated subcutaneously with 5×10^6 HT29 cells on the left dorsal side. After the tumors grew to 100-150 mm^3, the mice were randomly divided into the following groups for intragastric administration once daily: group 1: vehicle control group; group 2: compound 661 (80 mg/kg); group 3: compound 669 (80 mg/kg); group 4: compound 677 (80 mg/kg); group 5: compound 714 (80 mg/kg); group 6: compound 727 (80 mg/kg); group 7: compound 740 (80 mg/kg); and group 8: AMG650 (80 mg/kg). The tumor volume was measured twice weekly and at the end of treatment.

T1 sequence (Q8NI77 1-467): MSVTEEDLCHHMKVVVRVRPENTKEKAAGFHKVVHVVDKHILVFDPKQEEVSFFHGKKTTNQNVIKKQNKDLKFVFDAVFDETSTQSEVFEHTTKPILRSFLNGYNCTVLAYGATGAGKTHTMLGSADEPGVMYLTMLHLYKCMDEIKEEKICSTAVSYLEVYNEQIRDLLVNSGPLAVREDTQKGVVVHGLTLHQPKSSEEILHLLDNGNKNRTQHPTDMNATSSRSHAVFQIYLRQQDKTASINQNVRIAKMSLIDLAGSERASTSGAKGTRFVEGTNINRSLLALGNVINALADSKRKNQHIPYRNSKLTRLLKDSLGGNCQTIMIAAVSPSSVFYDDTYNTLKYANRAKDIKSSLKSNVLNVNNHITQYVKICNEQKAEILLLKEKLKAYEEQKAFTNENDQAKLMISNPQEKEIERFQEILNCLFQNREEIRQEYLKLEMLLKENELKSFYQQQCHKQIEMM
T1 sequence (P02550 whole entry partner): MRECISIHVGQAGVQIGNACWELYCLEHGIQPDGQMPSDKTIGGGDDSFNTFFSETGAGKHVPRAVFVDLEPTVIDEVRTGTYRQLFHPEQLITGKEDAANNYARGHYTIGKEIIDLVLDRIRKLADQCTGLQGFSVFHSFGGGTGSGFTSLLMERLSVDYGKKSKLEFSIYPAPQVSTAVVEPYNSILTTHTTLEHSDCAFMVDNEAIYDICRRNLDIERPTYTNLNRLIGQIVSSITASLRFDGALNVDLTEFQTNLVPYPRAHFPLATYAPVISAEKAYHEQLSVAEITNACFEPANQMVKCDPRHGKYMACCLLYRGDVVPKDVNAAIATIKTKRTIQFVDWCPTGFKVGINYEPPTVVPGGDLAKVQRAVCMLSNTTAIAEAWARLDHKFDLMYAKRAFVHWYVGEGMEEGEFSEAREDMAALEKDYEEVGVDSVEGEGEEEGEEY
T1 sequence (P02554 whole entry partner): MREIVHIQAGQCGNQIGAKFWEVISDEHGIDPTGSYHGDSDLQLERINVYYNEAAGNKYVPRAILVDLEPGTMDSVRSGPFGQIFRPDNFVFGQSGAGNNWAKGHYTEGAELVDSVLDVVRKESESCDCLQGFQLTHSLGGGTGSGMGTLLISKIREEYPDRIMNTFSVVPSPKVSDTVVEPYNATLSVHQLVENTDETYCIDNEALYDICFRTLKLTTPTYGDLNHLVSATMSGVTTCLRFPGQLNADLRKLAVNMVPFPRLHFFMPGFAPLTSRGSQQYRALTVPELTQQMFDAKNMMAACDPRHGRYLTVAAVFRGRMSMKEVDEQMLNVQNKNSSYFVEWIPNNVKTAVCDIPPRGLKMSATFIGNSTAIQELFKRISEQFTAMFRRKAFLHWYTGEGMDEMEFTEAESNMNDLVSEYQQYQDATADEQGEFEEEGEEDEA

With `O=C(Nc1ccc(NS(=O)(=O)CCO)cc1N1CCC2(CC1)CC2)c1ccc([N+](=O)[O-])c(N2CCC(F)(F)CC2)n1` [Compound 161], the IC50 – broadly, the midpoint of a concentration-inhibition curve – was at most 100 nM in test [1], 66.1 nM in test [3] and above 10000 nM in test [4]. In addition, the EC50 (in general, the concentration at which the effect is half-maximal) in test [2] was 26.4 nM.
As to `CNc1ccc(NC(=O)c2ccc(NS(=O)(=O)CCO)cc2N2CCC3(CC2)CC3)cc1N1CCC(F)(F)CC1` [Compound 641], the EC50 in test [2] was determined as 21.7 nM. In addition, the IC50 was 75.8 nM in test [3] and above 10000 nM in test [4].
As for `COc1ccc(C(=O)Nc2cnc(NS(=O)(=O)CCO)cc2N2CCC3(CC2)CC3)nc1N1CCC(F)(F)CC1` [Compound 353], the results for the IC50 in test [1], in test [3] and in test [4] were at most 100 nM, 74.6 nM and above 10000 nM, respectively. In addition, the EC50 in test [2] came out at 42.2 nM.
Regarding `Cc1cc(NC(=O)c2ccc(NS(=O)(=O)CCO)cc2N2CCC3(CC2)CC3)nc(N2CCC(F)(F)CC2)n1` [AMG650, reference compound], the EC50 in test [2] was 52.3 nM. In test [3], this compound returned an IC50 of 109 nM. For the same compound, in test [5], the “Tumor volume on day 1 of treatment” value came out at 121 mm^3, the “Tumor volume on day 28 of treatment” value was determined as 649 mm^3 and the “TGI (tumor growth inhibition)” value is on record as 64%. For the same compound, in test [4], the “Anti-proliferative activity against HCT116 cells (in words)” value is reported as “neither the compounds of the present invention nor AMG650 have anti-proliferative activity” and the IC50 is above 10000 nM.
Turning to `COc1ccc(NC(=O)c2ccc(NS(=O)(=O)CCOC(=O)C(C)C)cc2N2CCC3(CC2)CC3)nc1N1CCC(F)(F)CC1` [Compound 663], in test [2], the EC50 turned out to be 28.3 nM. In addition, the IC50 in test [3] was 35 nM; in test [4], above 10000 nM.
Take `COc1ccc(NC(=O)c2ccc(S(=O)(=O)NCCO)cc2N2CCC3(CC2)CC3)nc1N1CCC(F)(F)CC1` [Compound 273]: the IC50 in test [1] is at most 100 nM. In addition, in test [2], the EC50 amounted to 8.5 nM.
With `CN(C)c1ccc(NC(=O)c2ccc(NS(=O)(=O)CCO)cc2N2CCC3(CC2)CC3)cc1N1CCC(F)(F)CC1` [Compound 645], the EC50 in test [2] was 69.6 nM. Also, the IC50 in test [3] is 71.3 nM; in test [4] it was above 10000 nM.
On to `COc1ccc(NC(=O)c2ccc(NS(=O)(=O)CCOC(C)=O)cc2N2CCC3(CC2)CC3)nc1N1CCC(F)(F)CC1` [Compound 661], for which, in test [2], the 50% effective concentration (EC50) is 23.7 nM. Besides, the IC50 in test [3] was 25.8 nM. In test [5], the “Tumor volume on day 1 of treatment” value amounted to 121 mm^3, the “Tumor volume on day 28 of treatment” value is 704 mm^3 and the “TGI (tumor growth inhibition)” value is 61%. Moreover, in test [4], the IC50 is above 10000 nM.
Regarding `COc1ccc(NC(=O)c2ccc(NS(=O)(=O)CCOC(=O)[C@@H](N)C(C)C)cc2N2CCC3(CC2)CC3)nc1N1CCC(F)(F)CC1` [Compound 714], in test [2], the concentration for a half-maximal effect (EC50) was 39.2 nM. Besides, in test [5], the “Tumor volume on day 1 of treatment” value turned out to be 121 mm^3, the “Tumor volume on day 28 of treatment” value is recorded as 424 mm^3 and the “TGI (tumor growth inhibition)” value worked out at 80%. For the same compound, in test [5] (80 mg/kg, comparison with AMG650), the “Inhibitory effect on HT29 mouse subcutaneous xenograft tumor (in words)” value is on record as “stronger inhibitory effects”.
For `COc1ccc(NC(=O)c2ccc(NS(=O)(=O)CCO)cc2N2CCC3(CC2)CC3)nc1N1CCC(F)(F)CC1` [Compound 257], the IC50 in test [1] was at most 100 nM; in test [3], 11.1 nM; in test [4] it was above 10000 nM. In test [2], the EC50 came to 8.4 nM.
The like results for `O=C(Nc1ccc([N+](=O)[O-])c(N2CCC(F)(F)CC2)n1)c1ccc(NS(=O)(=O)CCO)cc1N1CCC2(CC1)CC2` [Compound 65] were, in that order, at most 100 nM, 55.3 nM, above 10000 nM and 45.5 nM.
The like results for `COc1ccc(C(=O)Nc2ccc(NS(=O)(=O)CCO)cc2N2CCC3(CC2)CC3)nc1N1CCC(F)(F)CC1` [Compound 321] were, in that order, at most 100 nM, 59.3 nM, above 10000 nM and 15.8 nM.
